pIC50: −log10 of the molar value.
How the values were obtained:
[1] = Antagonist activity at human recombinant CCR8 expressed in HUT78 cells assessed as I309-mediated migration by chemotaxis assay
[2] = Antagonist activity at human recombinant CCR8 expressed in Th2 cells assessed as I309 mediated migration by chemotaxis assay

pIC50 [1]: 6.30
pIC50 [2]: 7.00
Compound: COc1ccc2nccc([C@@H]3CN(C4CCN(Cc5cc6ccccc6[nH]5)CC4)C(=O)O3)c2c1 [SB-649701]
